The conditions of data set [1]: solvent furfural; cited from earlier work.
Data set [2] can be described thus: Solubility of crosslinking agent HMTA in methyl benzoate by proton NMR with duroquinone internal standard. The class given is physicochemical. The conditions noted are these: solvent methyl benzoate. The protocol:
For compositional analysis, a Bruker 400 megahertz (MHz) NMR instrument was used. The solubility of crosslinking agent, HMTA, in methyl benzoate was measured by using duroquinone as the internal standard.
The high solubility of HMTA results directly from the plasticized phenol-formaldehyde prepolymer. […] J. P. Patel, et al., J. Polym. Sci. Part B: Polym. Phys., 2015, vol. 53, pp. 1519-1526. […] In this scheme methyl benzoate indirectly increases the interaction between the two reactants, the crosslinking agent HMTA and the phenol-formaldehyde prepolymer.

Regarding `C1N2CN3CN1CN(C2)C3` [HMTA, hexamethylenetetramine], the “solubility of HMTA in furfural” value in data set [1] is given as “less than two”. Also, in data set [2], the “solubility of HMTA in methyl benzoate (in words)” value was “virtually insoluble”. In addition, the “solubility of HMTA in methyl benzoate” value in data set [2] (proton NMR, duroquinone internal standard) was “no more than 5 milligrams of HMTA per milliliter of methyl benzoate”.
